Measurements taken from patent US8735443B2, “Method of treating diabetes-related vascular complications” (Kuwait University, priority 2008, dated 2014).

Experiments:
[1] = tested on: rat aortic rings; assay: Acetylcholine-induced endothelium dependent relaxation of aortic rings in organ chamber; assay type: in vivo; details: GK diabetic rats
Method: In the experiments, with regard to the determination of endothelium dependent relaxation (EDR) in the aorta, EDR in response to various concentrations of acetylcholine (Ach) (10^−9 to 10^−6 mol/l) was assessed in norepinephrine (10^−7 mol/l) preconstructed rat aortic rings using an organ chamber bath. The effects of the NAD(P)H oxidase inhibitor apocynin (3×10^−4 mol/l) and the O2^− scavenger Tiron (10 mmol/l) on Ach-induced responses of diabetic arteries were also considered.

[2] = tested on: diabetic fibroblasts (DFs); assay: Cell viability after hydrogen peroxide (Cell Counting Kit-8), diabetic fibroblasts; assay type: cell-based, rat; details: diabetic fibroblasts, lipoic acid 500 μM, Nrf2-dependent
From the text: To determine the effect of α-lipoic acid on isolated cells from normal and diabetic rats, primary rat fibroblasts were derived from dorsal skin biopsies performed on four diabetic Coto Kakizaki rats (DFs) and four age-matched (12-14 months) and sex-matched (female) Wistar control rats (CFs). After sterilization in povidine solution, the rat skin was washed in sterile water and rinsed in 70% ethanol in phosphate-buffered saline (PBS). The epidermis and dermis were separated following overnight incubation in 0.25% Trypsin/EDTA at 4° C. Samples were washed, diced and digested for thirty minutes at 37° C. in collagenase type I (250 U/ml) dissolved in Dulbecco's modified Eagle medium (DMEM; Invitrogen) containing penicillin (100 U/ml), 2 mM L-glutamine and 26 mM HEPES. After collagenase treatment, the cells were dislodged, centrifuged and resuspended in medium supplemented with 10% fetal bovine serum. The cells were grown under standard conditions, and the medium was changed every three to four days. Control and diabetic fibroblasts were grown under normo-glycemic conditions (5.5 mM glucose) and used in experiments at passage 3 to 5.
Fibroblasts were seeded at 1×10^4 cells/well on a 96-well plate. After a 24 hour incubation period, the cells were exposed to various concentrations of HP in serum-free medium at 37° C. for 2 hours [lactate dehydrogenase (LDH), a marker for necrotic cell death], or for 16 hours (cell viability). Quantification of cell viability was assessed using a Cell Counting Kit-8 (Dojindo, Kumamoto, Japan). The values obtained were normalized to the vehicle-treated cells. To measure the rate of necrotic cell death, an LDH release assay was performed using a CytoTox-ONE Homogeneous Membrane Integrity Assay kit (Promega). Expression of Nrf2 was inhibited by small-interfering RNA (siRNA) oligonucleotides. The sequences were designed and synthesized by Qiagen. The best silencing efficiency was obtained by incubating 2.0×10^5 cells/well in a 6-well plate with complexes formed by 5 nM siRNA (1 μl) and 9 μL of HiPerfect transfection reagent (Qiagen) dissolved in 90 μl medium, according to the manufacturer's instructions. The transfection was achieved by adding 0.9 ml of medium to the seeded cells followed by 100 μl of siRNA/HiPerfect complex. Knock-out efficiency was verified by real-time PCR and Western blot. Twenty-four hours later, 1 ml of fresh medium was added; 48 hr after transfection the cells were exposed to either vehicle or lipoic acid at a concentration of 500 μM.

[3] = tested on: TNF-α; assay: Aortic mRNA expression by QRT-PCR, TNF-α; assay type: in vivo, rat; details: GK rats, LA chronic therapy
Method: (§1) Further, with regard to quantitative real-time polymerase chain reactions (PCR) in the study, total RNA from the arterial samples was isolated using TRIZOL® reagent, and RNA integrity was verified by agarose gel electrophoresis and quantified by spectrophotometry. Reverse transcription reaction of total RNA (5 μg) was performed using a superscript 111 first-strand synthesis system. Quantitative real-time PCR was performed using fast SYBR Green QPCR. […]
(§2) The housekeeping gene beta-actin was used for internal normalization. Fidelity of the PCR reaction was determined by melting temperature analysis. PCR efficiency for each primer pair was determined by quantitating amplification with increasing concentration of template cDNA. […] RNA expression of target genes was calculated based on the real-time PCR efficiency E and the threshold crossing point (CP) and is expressed relative to the reference gene beta-actin.

[4] = tested on: gp 91^phox; assay: Aortic mRNA expression by real-time PCR, gp 91phox; assay type: in vivo, rat; details: aorta of LA-treated GK rats
Method: as §1, §2

[5] = tested on: aortic tissue; assay: Aortic superoxide production, lucigenin-enhanced chemiluminescence; assay type: in vivo, rat; details: GK rats, LA 50 mg/kg i.p. daily for four weeks
Method: In the study, with regard to measurement of vascular superoxide anion formation, O2^− concentration in aortic tissue was determined using a lucigenin-enhanced chemiluminescence method, and the resulting data were further confirmed by a cytochrome c-based technique. Segments of the thoracic aorta were placed into 2 ml Krebs-Henseleit buffer (KHB, pH 7.4), and prewarmed to 37° C. for one hour. Immediately before measurement, rings were transferred to scintillation vials containing KHB with 5 μmol/L lucigenin and the O2^− generated chemiluminescence was recorded for five minutes with a scintillation counter. The amount of O2^− produced was quantified using a standard curve of O2^− generation by xanthine/xanthine oxidase and the data are expressed as nmol per min, per mg, of wet weight. In some experiments, vessels were denuded of endothelium by gentle rubbing of the luminal surface, whereas in others, N^ω-nitro-L-arginine methyl ester (L-NAME) 0.1 mM, diphenylene iodonium 0.1 mM, or apocynin 3 mM were added 60 min before determining O2^− generation.

[6] = tested on: aortic vessels; assay: Dihydroethidium / ethidium bromide fluorescence of aortic sections; assay type: in vivo, rat; details: LA-treated diabetic rats
Method: Dihydroethidium (DHE), an oxidative fluorescent dye, was used to localize superoxide production in situ. DHE is oxidized on reaction with superoxide to ethidium bromide, which binds to DNA in the nucleus and fluoresces. Arteries were embedded in OCT medium, frozen and cryosectioned. Vascular sections were incubated with DHE at a concentration (10^−6 mol/l) at 37° C. for 30 minutes. DHE images from serial sections were obtained using a Zeiss Axioplan 2000 fluorescence microscope.

**Q.** With `O=C(O)CCCCC1CCSS1` (stereo not drawn) [LA, alpha-lipoic acid] as the molecule, how does the “decline in acetylcholine (Ach)-induced relaxation of rat aorta” value ([1]; LA 50 mg/kg i.p. daily for four weeks) read?
**A.** ameliorated

**Q.** What about the “beneficial effect on Ach-induced relaxation after discontinuation” value ([1]; two weeks after discontinuation of LA) of the same molecule?
**A.** not evident

**Q.** And the “protection of cell viability from hydrogen peroxide” value [2]?
**A.** protected

**Q.** And the “diabetes related up-regulation of TNF-α mRNA (aorta)” value [3]?
**A.** Reversal

**Q.** And the “rate of gene expression of pg 91^phox subunit” value [4]?
**A.** tended to reduce

**Q.** What about the “diabetes-mediated increase in aortic superoxide production” value [5] of the same molecule?
**A.** suppression

**Q.** What about the “nuclear EB fluorescence in aortic vessels” value [6] of the same molecule?
**A.** significantly reduced
